Experimental findings from ChEMBL document CHEMBL4483862, “Open-source discovery of chemical leads for next-generation chemoprotective antimalarials” (2018) are described below.

This test deals with Plasmodium berghei. Put plainly: Luciferase/luciferin-expressing antifolate-resistant parasites were used to infect a culture of HepG2 cells that were pre-incubated with compounds. Infected hepatocytes emit light due to the luciferase reaction. Assay results are presented as the percent inhibition of light emission compared to control. […]. It is filed as functional. The settings on record: sporozoite; for IC90: read-out: LUCIFERASE INFECTION ASSAY - IC90.

Regarding `CC(=O)NC1=C(N(C)C2CCS(=O)(=O)C2)C(=O)c2ccccc2C1=O` (stereo not drawn), the IC90 is greater than 10 µM. Also, the IC50 (FFLUC_HILL_SLOPE 10.5, FFLUC_R_SQUARED 0.371, PBLUC_HILL_SLOPE 1.29, PBLUC_R_SQUARED 0.482, read-out: LUCIFERASE INFECTION ASSAY - IC50) was determined as 5.96 µM.

With `COc1ccccc1N1C(C)=CC(=C(C#N)c2nc3ccccc3s2)C=C1C`, the IC90 is greater than 10 µM. Also, the half-maximal inhibitory concentration (IC50) (FFLUC_HILL_SLOPE 10.1, FFLUC_R_SQUARED 0.663, HEPG2TOX_HILL_SLOPE 9.46, HEPG2TOX_R_SQUARED 0.504, PBLUC_HILL_SLOPE 1.94, PBLUC_R_SQUARED 0.582, read-out: LUCIFERASE INFECTION ASSAY - IC50) is 3.83 µM.

Take `C=CCn1c(SCc2cn3c(C)cccc3n2)nc2sc(C)c(C)c2c1=O`: the IC90 is greater than 10 µM. Besides, where the note is “FFLUC_HILL_SLOPE 10.3, FFLUC_R_SQUARED 0.131, HEPG2TOX_HILL_SLOPE 7.8, HEPG2TOX_R_SQUARED 0.483, read-out: LUCIFERASE INFECTION ASSAY - IC50”, the IC50 was greater than 10 µM.

As for `N#Cc1ccc(S(=O)(=O)Nc2cc(C(F)(F)F)cc(C(F)(F)F)c2)c(Cl)c1`, the 90% effect concentration (IC90) is 5.49 µM. Moreover, the IC50 (FFLUC_HILL_SLOPE 10.5, FFLUC_R_SQUARED 0.0508, HEPG2TOX_HILL_SLOPE 1.91, HEPG2TOX_R_SQUARED 0.922, PBLUC_HILL_SLOPE 2.28, PBLUC_R_SQUARED 0.661, read-out: LUCIFERASE INFECTION ASSAY - IC50) is 2.09 µM.

Regarding `O=C1C=CC(=O)N1c1cc(Cl)ccc1Cl`, the IC90 is greater than 13.6 µM. Also, where the note is “FFLUC_HILL_SLOPE 10.4, FFLUC_R_SQUARED 0.533, read-out: LUCIFERASE INFECTION ASSAY - IC50”, the IC50 was greater than 13.6 µM.

With `C=CCn1c2ccccc2c2ccccc21`, the IC90 is greater than 15.9 µM. In addition, the IC50 (FFLUC_HILL_SLOPE 10.4, FFLUC_R_SQUARED 0.117, read-out: LUCIFERASE INFECTION ASSAY - IC50) was greater than 15.9 µM.

Regarding `C=CCn1c(-c2ccccc2)cs/c1=N\Nc1ccc([N+](=O)[O-])cc1`, the IC90 is greater than 10 µM. In addition, the IC50 (FFLUC_HILL_SLOPE 10.5, FFLUC_R_SQUARED 0.467, read-out: LUCIFERASE INFECTION ASSAY - IC50) was greater than 10 µM.

`Cc1ccc(-c2nc(SCc3nc(=O)c4c(-c5ccccc5)csc4[nH]3)[nH]c2-c2ccc(C)cc2)cc1`: the 90% effect concentration (IC90) was greater than 10 µM. In addition, the IC50 (FFLUC_HILL_SLOPE 10.3, FFLUC_R_SQUARED 0.755, read-out: LUCIFERASE INFECTION ASSAY - IC50) was greater than 10 µM.

Take `O=C(COc1ccc2[nH]c3ccccc3c(=O)c2c1)N1c2ccccc2OCC1c1ccccc1` (stereo not drawn): the IC90 is 0.0412 µM. The IC50 (FFLUC_HILL_SLOPE 10.4, FFLUC_R_SQUARED 0.204, PBLUC_HILL_SLOPE 2.2, PBLUC_R_SQUARED 0.922, read-out: LUCIFERASE INFECTION ASSAY - IC50) was found to be 0.0152 µM.

As to `CC(Sc1nc2ncccn2n1)C(=O)N1c2ccccc2CC1C` (stereo not drawn), the IC90 was greater than 10 µM. Under “FFLUC_HILL_SLOPE 10.4, FFLUC_R_SQUARED 0.228, read-out: LUCIFERASE INFECTION ASSAY - IC50”, the IC50 was greater than 10 µM.

Take `CCc1nn2c(=O)c(CC)c(C)[nH]c2c1-c1ccc(Cl)cc1`: the IC90 is greater than 10.4 µM. In addition, the IC50 (FFLUC_HILL_SLOPE 10.5, FFLUC_R_SQUARED 0.352, PBLUC_HILL_SLOPE 13.5, PBLUC_R_SQUARED 0.435, read-out: LUCIFERASE INFECTION ASSAY - IC50) stood at 8.92 µM.

For the molecule `CC(C)(C)c1nnc2sc(SCC(=O)NC(c3ccccc3)c3ccccc3)nn2c1=O`, the IC90 was greater than 10 µM. The IC50 (FFLUC_HILL_SLOPE 10.4, FFLUC_R_SQUARED 0.278, PBLUC_HILL_SLOPE 1.88, PBLUC_R_SQUARED 0.683, read-out: LUCIFERASE INFECTION ASSAY - IC50) turned out to be 4.26 µM.

Turning to `CC(C)(C)c1cc(C(=O)Nc2cccc(Cl)c2)n(Cc2ccc(Cl)cc2Cl)n1`, the IC90 was greater than 7.56 µM. In addition, where the note is “FFLUC_HILL_SLOPE 10.5, FFLUC_R_SQUARED 0.365, read-out: LUCIFERASE INFECTION ASSAY - IC50”, the IC50 is greater than 7.56 µM.

Regarding `O=c1c2ccccc2[nH]c2ccc(Oc3ncnc4ccsc34)cc12`, the IC90 amounted to 0.558 µM. Moreover, the IC50 (FFLUC_HILL_SLOPE 10.4, FFLUC_R_SQUARED 0.538, PBLUC_HILL_SLOPE 5.72, PBLUC_R_SQUARED 0.733, read-out: LUCIFERASE INFECTION ASSAY - IC50) was 0.38 µM.

In the case of `CCOC(=O)c1c(N)sc(Cc2sc(N)c(C(=O)OCC)c2-c2ccccc2)c1-c1ccccc1`, the IC90 amounted to 5.92 µM. In addition, the IC50 (FFLUC_HILL_SLOPE 10.1, FFLUC_R_SQUARED 0.631, HEPG2TOX_HILL_SLOPE 3.62, HEPG2TOX_R_SQUARED 0.944, PBLUC_HILL_SLOPE 88.7, PBLUC_R_SQUARED 0.482, read-out: LUCIFERASE INFECTION ASSAY - IC50) was determined as 5.77 µM.

With `O=S(=O)(Nc1ccc(Cl)cc1)c1cc(NC(=S)Nc2ccc(Oc3ccccc3)cc2)ccc1N1CCCCC1`, the IC90 is greater than 10 µM. Moreover, the IC50 (FFLUC_HILL_SLOPE 10.3, FFLUC_R_SQUARED 0.0303, PBLUC_HILL_SLOPE 13.4, PBLUC_R_SQUARED 0.215, read-out: LUCIFERASE INFECTION ASSAY - IC50) is greater than 10 µM.

On to `CCN(CCO)c1ccc(NC2=C(NC(C)=O)C(=O)c3ccccc3C2=O)cc1`, for which the IC90 was greater than 10 µM. Further, where the note is “FFLUC_HILL_SLOPE 10.4, FFLUC_R_SQUARED 0.141, HEPG2TOX_HILL_SLOPE 0.681, HEPG2TOX_R_SQUARED 0.905, PBLUC_HILL_SLOPE 1.27, PBLUC_R_SQUARED 0.687, read-out: LUCIFERASE INFECTION ASSAY - IC50”, the IC50 turned out to be 2.16 µM.

Regarding `CC(OC(=O)c1cc2ccccc2cc1O)C(=O)Nc1cccc(S(=O)(=O)N2CCOCC2)c1` (stereo not drawn), the IC90 was greater than 10 µM. Also, under “FFLUC_HILL_SLOPE 10.4, FFLUC_R_SQUARED 0.221, read-out: LUCIFERASE INFECTION ASSAY - IC50”, the IC50 is greater than 10 µM.

In the case of `O=C(Nc1ncc(Cc2cccc(Cl)c2Cl)s1)c1ccc(-n2cncn2)nc1`, the IC90 was greater than 10 µM. Where the note is “FFLUC_HILL_SLOPE 10.4, FFLUC_R_SQUARED 0.281, HEPG2TOX_HILL_SLOPE 2.29, HEPG2TOX_R_SQUARED 0.935, PBLUC_HILL_SLOPE 1.7, PBLUC_R_SQUARED 0.542, read-out: LUCIFERASE INFECTION ASSAY - IC50”, the IC50 worked out at 3.51 µM.

Regarding `CCCNC(=O)c1c(NC(=O)c2cc(F)ccc2F)nc2ccc(C)cn12`, the IC90 is 1.18 µM. Also, under “FFLUC_HILL_SLOPE 10.5, FFLUC_R_SQUARED 0.751, HEPG2TOX_HILL_SLOPE 1.41, HEPG2TOX_R_SQUARED 0.982, PBLUC_HILL_SLOPE 15, PBLUC_R_SQUARED 0.726, read-out: LUCIFERASE INFECTION ASSAY - IC50”, the IC50 was determined as 1.02 µM.

`CCOC(=O)c1sc(SCc2ccccc2)c2c1CC(c1ccccc1)CC2=O` (stereo not drawn): the IC90 is greater than 7.81 µM. Besides, for the setting “FFLUC_HILL_SLOPE 10.5, FFLUC_R_SQUARED 0.686, PBLUC_HILL_SLOPE 0.804, PBLUC_R_SQUARED 0.242, read-out: LUCIFERASE INFECTION ASSAY - IC50”, the IC50 is greater than 7.81 µM.

Turning to `FC(F)(F)c1ccccc1N/N=C/c1ccc(OCc2ccccc2)c(OCc2ccccc2)c1`, the IC90 was greater than 10 µM. Moreover, the IC50 (FFLUC_HILL_SLOPE 10.4, FFLUC_R_SQUARED 0.371, read-out: LUCIFERASE INFECTION ASSAY - IC50) is greater than 10 µM.

In the case of `Cc1ccc(C(=O)C(c2ccc(C)cc2)N2C(=O)NC(C)(c3ccccc3)C2=O)cc1` (stereo not drawn), the IC90 was greater than 10 µM. Where the note is “FFLUC_HILL_SLOPE 10.4, FFLUC_R_SQUARED 0.468, read-out: LUCIFERASE INFECTION ASSAY - IC50”, the IC50 was greater than 10 µM.

On to `CCOC(=O)c1sc(SC)c2c1CCc1c[nH]nc1-2`, for which the IC90 was greater than 11.2 µM. Where the note is “FFLUC_HILL_SLOPE 10.3, FFLUC_R_SQUARED 0.371, read-out: LUCIFERASE INFECTION ASSAY - IC50”, the IC50 was greater than 11.2 µM.

On to `COCCOc1ccc(C(F)(F)F)cc1NC(=O)COC(=O)c1ccc2[nH]c3c(c2c1)CCCC3`, for which the IC90 is greater than 10 µM. Further, the IC50 (FFLUC_HILL_SLOPE 10.4, FFLUC_R_SQUARED 0.848, HEPG2TOX_HILL_SLOPE 1.66, HEPG2TOX_R_SQUARED 0.868, PBLUC_HILL_SLOPE 2.48, PBLUC_R_SQUARED 0.755, read-out: LUCIFERASE INFECTION ASSAY - IC50) came out at 4.17 µM.

In the case of `c1ccc(C2(c3ccccc3)CC2(c2ccccc2)c2ccccc2)cc1`, the IC90 stood at 8.97 µM. In addition, the IC50 (FFLUC_HILL_SLOPE 10.4, FFLUC_R_SQUARED 0.239, PBLUC_HILL_SLOPE 23.3, PBLUC_R_SQUARED 0.151, read-out: LUCIFERASE INFECTION ASSAY - IC50) came out at 8.16 µM.

Consider `CC(C)Cc1ccc(C(=O)CC(Sc2ccccc2N)c2ccc(C(F)(F)F)cc2)cc1` (stereo not drawn), for which the IC90 came to 0.452 µM. Further, the half-maximal inhibitory concentration (IC50) (FFLUC_HILL_SLOPE 10.1, FFLUC_R_SQUARED 0.429, PBLUC_HILL_SLOPE 1.99, PBLUC_R_SQUARED 0.752, read-out: LUCIFERASE INFECTION ASSAY - IC50) is 0.15 µM.

As to `Cc1cc2[nH]c(C)cc(=O)n2n1`, the IC90 is greater than 20.2 µM. The IC50 (FFLUC_HILL_SLOPE 10.3, FFLUC_R_SQUARED 0.148, read-out: LUCIFERASE INFECTION ASSAY - IC50) is greater than 20.2 µM.

In the case of `CC1CCc2[nH]c3ccc(C(=O)Nc4ccccc4N4CCCCC4)cc3c2C1` (stereo not drawn), the IC90 is 0.818 µM. In addition, the IC50 (FFLUC_HILL_SLOPE 10.4, FFLUC_R_SQUARED 0.246, PBLUC_HILL_SLOPE 2.51, PBLUC_R_SQUARED 0.903, read-out: LUCIFERASE INFECTION ASSAY - IC50) worked out at 0.341 µM.

In general, IC50 refers to the concentration that inhibits the measured activity by half. As usually defined, the IC90 is the concentration at which the effect reaches the 90% level.
